Assay results from ChEMBL document CHEMBL5143613, “Discovery of 6,7-dihydro-5H-pyrrolo[3,4-d] pyrimidine derivatives as a new class of ATR inhibitors” (Bioorg Med Chem Lett, 2022).
One block for each molecule: values may come before it.

Key:
[1] = Inhibition of recombinant full-length human ATR M211T mutant using GST-cMyc-p53 as substrate incubated for 40 mins by HTRF assay
[2] = system: LoVo; experiment: Anti-tumor activity against human LoVo cells assessed as inhibition of cell viability incubated for 72 hrs by MTT assay; assay type: functional, cell-based
[3] = system: NCI-H23; experiment: Anti-tumor activity against human NCI-H23 cells assessed as inhibition of cell viability incubated for 72 hrs by MTT assay; assay type: functional, cell-based; conditions: NCI-H23, 72 h
[4] = system: MDA-MB-436; experiment: Anti-tumor activity against human MDA-MB-436 cells assessed as inhibition of cell viability incubated for 72 hrs by MTT assay; assay type: functional, cell-based; conditions: MDA-MB-436, 72 h
[5] = system: MDA-MB-468; experiment: Anti-tumor activity against human MDA-MB-468 cells assessed as inhibition of cell viability incubated for 72 hrs by MTT assay; assay type: functional, cell-based; conditions: MDA-MB-468, 72 h
[6] = system: Granta-519; experiment: Anti-tumor activity against human Granta-519 cells assessed as inhibition of cell viability incubated for 72 hrs by MTT assay; assay type: functional, cell-based; conditions: Granta-519, 72 h
[7] = system: CWR22R; experiment: Anti-tumor activity against human 22Rv1 cells assessed as inhibition of cell viability incubated for 72 hrs by MTT assay; assay type: functional, cell-based; conditions: 22Rv1, 72 h
[8] = system: SW-620; experiment: Anti-tumor activity against human SW-620 cells assessed as inhibition of cell viability incubated for 72 hrs by MTT assay; assay type: functional, cell-based; conditions: SW-620, 72 h
[9] = system: A2780; experiment: Anti-tumor activity against human A2780 cells assessed as inhibition of cell viability incubated for 72 hrs by MTT assay; assay type: functional, cell-based; conditions: A2780, 72 h
[10] = target: Serine/threonine-protein kinase mTOR (Homo sapiens, UniProt P42345); experiment: Inhibition of human full length recombinant mTOR in presence of [gamma-33P]ATP incubated for 40 mins by radiometric scintillation counting analysis
[11] = system: A2780; experiment: Inhibition of colony formation in human A2780 cells by crystal violet staining based analysis; assay type: functional, cell-based; conditions: dose 0.03-3 µM, DDE = dose-dependent effect
[12] = target: Serine/threonine-protein kinase ATR (Homo sapiens) (UniProt Q13535); experiment: Inhibition of ATR in HU-treated human A2780 cells assessed as inhibition of Chk1 phosphorylation at Ser345 residue by Western blot assay; assay type: cell-based; conditions: dose 0.03-10 µM, DDE = dose-dependent effect
Chain of Serine/threonine-protein kinase ATR (Homo sapiens) (Q13535 whole entry, looked up, the tested form may be a part): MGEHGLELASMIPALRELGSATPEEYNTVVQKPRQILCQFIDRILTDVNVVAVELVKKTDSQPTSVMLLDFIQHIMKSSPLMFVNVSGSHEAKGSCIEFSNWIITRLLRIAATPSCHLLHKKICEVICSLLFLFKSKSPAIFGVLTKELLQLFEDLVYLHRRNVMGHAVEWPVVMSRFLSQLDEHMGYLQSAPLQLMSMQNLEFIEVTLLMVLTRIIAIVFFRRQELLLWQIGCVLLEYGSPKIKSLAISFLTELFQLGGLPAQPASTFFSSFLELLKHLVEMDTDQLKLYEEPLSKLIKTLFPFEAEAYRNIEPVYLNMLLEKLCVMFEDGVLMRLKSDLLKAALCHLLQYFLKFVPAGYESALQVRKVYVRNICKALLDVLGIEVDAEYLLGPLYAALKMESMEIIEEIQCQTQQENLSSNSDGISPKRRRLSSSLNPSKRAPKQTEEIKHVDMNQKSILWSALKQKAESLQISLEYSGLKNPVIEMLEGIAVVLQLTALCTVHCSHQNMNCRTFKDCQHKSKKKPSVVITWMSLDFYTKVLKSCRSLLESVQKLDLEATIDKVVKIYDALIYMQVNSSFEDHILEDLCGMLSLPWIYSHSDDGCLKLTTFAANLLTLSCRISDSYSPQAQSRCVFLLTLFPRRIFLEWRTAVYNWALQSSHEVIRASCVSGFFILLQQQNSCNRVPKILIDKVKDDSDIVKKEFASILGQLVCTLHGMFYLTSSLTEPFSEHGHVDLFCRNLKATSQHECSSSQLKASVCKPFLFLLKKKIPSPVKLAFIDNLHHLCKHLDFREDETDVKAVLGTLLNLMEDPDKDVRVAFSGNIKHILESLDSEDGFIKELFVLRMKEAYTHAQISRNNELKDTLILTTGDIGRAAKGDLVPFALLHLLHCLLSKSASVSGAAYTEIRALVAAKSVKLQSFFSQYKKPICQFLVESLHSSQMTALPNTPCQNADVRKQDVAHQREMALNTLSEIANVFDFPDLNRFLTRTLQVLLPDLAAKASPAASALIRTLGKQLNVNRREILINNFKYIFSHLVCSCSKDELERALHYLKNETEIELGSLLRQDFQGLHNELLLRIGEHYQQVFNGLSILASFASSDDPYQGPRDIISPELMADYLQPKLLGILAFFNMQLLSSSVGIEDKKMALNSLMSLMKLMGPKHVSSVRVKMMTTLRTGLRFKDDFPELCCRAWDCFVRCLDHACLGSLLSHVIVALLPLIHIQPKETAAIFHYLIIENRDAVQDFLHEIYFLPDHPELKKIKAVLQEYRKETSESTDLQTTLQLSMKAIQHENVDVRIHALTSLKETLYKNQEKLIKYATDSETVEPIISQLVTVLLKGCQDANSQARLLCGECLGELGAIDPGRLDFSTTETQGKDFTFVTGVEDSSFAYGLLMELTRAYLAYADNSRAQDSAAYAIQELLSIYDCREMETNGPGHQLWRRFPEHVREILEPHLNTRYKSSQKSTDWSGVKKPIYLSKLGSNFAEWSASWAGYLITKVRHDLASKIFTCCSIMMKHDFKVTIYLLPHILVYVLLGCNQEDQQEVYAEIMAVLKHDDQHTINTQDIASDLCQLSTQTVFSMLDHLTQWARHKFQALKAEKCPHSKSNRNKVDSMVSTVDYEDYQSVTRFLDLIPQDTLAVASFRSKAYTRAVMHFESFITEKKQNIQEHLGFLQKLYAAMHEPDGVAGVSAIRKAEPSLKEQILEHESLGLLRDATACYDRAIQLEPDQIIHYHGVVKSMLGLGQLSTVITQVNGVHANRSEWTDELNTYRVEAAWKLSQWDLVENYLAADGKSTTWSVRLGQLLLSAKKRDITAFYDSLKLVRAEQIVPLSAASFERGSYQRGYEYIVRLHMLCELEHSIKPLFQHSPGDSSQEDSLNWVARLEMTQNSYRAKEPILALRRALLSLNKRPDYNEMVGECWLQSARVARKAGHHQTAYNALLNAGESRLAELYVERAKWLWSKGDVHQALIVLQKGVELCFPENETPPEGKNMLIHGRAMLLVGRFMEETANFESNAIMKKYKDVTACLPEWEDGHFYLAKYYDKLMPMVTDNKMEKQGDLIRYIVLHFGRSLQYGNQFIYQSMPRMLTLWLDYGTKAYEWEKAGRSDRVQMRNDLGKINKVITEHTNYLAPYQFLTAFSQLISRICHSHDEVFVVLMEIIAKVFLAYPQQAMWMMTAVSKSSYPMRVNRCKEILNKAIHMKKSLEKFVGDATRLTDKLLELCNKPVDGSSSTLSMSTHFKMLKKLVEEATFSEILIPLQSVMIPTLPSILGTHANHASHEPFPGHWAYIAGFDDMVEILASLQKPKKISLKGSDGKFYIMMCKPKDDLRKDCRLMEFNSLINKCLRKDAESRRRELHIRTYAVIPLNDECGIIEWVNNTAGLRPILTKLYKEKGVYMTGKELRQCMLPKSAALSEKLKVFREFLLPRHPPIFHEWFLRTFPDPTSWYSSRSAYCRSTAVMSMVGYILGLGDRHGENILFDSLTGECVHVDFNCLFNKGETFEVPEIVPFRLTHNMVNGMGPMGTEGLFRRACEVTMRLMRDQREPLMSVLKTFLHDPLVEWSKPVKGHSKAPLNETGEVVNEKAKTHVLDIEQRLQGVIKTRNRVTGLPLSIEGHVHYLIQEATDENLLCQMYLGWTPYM

[13] = target: Phosphatidylinositol 4-phosphate 3-kinase C2 domain-containing subunit alpha (Homo sapiens, UniProt O00443); experiment: Inhibition of human PI3K-C2alpha (299 to ens residues) using phosphatidylinositol-4, 5-bisphosphate as substrate incubated for 40 mins by HTRF assay
Chain of Phosphatidylinositol 4-phosphate 3-kinase C2 domain-containing subunit alpha (O00443 whole entry, the tested form may be a part): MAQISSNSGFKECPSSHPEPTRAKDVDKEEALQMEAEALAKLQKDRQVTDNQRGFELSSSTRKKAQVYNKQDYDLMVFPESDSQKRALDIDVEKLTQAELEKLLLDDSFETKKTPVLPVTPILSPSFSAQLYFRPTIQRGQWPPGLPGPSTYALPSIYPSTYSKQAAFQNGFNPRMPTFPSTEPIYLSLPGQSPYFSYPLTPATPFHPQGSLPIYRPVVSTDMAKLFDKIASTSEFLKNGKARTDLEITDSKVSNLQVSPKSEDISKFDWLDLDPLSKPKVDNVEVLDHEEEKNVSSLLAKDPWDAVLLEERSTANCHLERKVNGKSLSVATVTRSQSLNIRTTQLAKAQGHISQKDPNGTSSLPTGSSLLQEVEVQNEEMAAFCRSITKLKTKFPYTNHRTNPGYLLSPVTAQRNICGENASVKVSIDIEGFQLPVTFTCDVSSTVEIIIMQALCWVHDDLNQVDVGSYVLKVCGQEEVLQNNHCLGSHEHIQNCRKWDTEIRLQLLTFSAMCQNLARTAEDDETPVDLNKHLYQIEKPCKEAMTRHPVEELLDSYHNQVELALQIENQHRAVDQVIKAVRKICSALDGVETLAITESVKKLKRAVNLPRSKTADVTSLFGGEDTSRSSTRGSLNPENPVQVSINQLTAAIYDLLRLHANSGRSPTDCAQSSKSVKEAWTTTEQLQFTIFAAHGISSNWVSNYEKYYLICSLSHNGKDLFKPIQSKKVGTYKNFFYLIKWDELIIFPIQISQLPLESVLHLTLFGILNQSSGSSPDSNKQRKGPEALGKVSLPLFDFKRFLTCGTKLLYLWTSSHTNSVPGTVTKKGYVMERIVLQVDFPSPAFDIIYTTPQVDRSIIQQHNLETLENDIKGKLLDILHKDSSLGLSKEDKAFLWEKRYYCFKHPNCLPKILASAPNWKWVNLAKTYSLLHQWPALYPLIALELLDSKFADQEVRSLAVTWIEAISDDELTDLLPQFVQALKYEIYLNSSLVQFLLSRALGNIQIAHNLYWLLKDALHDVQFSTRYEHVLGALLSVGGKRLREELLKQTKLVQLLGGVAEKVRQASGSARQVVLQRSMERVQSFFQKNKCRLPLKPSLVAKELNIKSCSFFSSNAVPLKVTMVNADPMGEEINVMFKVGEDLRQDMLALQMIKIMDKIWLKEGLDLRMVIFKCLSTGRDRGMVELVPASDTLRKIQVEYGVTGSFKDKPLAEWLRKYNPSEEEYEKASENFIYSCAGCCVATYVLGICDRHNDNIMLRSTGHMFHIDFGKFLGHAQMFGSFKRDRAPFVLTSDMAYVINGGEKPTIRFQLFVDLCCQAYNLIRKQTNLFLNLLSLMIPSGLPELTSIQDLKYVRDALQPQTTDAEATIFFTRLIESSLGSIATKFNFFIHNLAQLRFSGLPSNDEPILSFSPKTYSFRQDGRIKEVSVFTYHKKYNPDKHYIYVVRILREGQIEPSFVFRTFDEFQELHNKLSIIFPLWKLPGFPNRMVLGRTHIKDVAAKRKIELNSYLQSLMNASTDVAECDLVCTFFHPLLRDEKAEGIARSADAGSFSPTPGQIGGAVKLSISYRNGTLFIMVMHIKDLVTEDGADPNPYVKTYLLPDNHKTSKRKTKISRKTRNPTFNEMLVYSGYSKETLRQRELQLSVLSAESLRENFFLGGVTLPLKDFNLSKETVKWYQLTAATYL

[14] = target: Serine/threonine-protein kinase ATR (Homo sapiens) (UniProt Q13535); experiment: Inhibition of ATR in HU-treated human A2780 cells assessed as inhibition of ATR phosphorylation by Western blot assay; assay type: cell-based; conditions: dose 0.03-10 µM, DDE = dose-dependent effect
[15] = target: Serine/threonine-protein kinase B-raf (Homo sapiens, UniProt P15056); experiment: Inhibition of human recombinant B-Raf (416 to end residues) using myelin basic protein as substrate in presence of [gamma-33P]ATP incubated for 40 mins by radiometric scintillation counting analysis
[16] = target: Serine/threonine-protein kinase ATR (Homo sapiens) (UniProt Q13535); experiment: Inhibition of ATR in human A2780 cells assessed as induction of DNA damage incubated for 3 days by DAPI staining based immunofluorescence analysis; assay type: cell-based; conditions: dose 1-10 µM, time 3.0 day, DDE = dose-dependent effect
[17] = target: PI3-kinase p110-delta/p85-alpha (Homo sapiens, UniProt O00329); experiment: Inhibition of recombinant human full length PI3K p110delta/p85a using phosphatidylinositol-4, 5-bisphosphate as substrate incubated for 40 mins in presence of [gamma33P]ATP by radiometric scintillation counting analysis; assay type: protein-complex assay
[18] = system: A2780; experiment: Anti-migration activity against human A2780 cells assessed as inhibition of cell migration incubated for 24 to 48 hrs by wound healing assay; assay type: functional, cell-based; conditions: dose 0.1-1 µM, time 24-48 hrs, DDE = dose-dependent effect
[19] = system: A2780; experiment: Anti-migration activity against human A2780 cells assessed as inhibition of cell migration at 0.1 to 1 uM by wound healing assay; assay type: functional, cell-based; conditions: dose 0.1-1 µM, time 24-48 hrs, TDE = time-dependent effect
[20] = target: FKBP12A/mTOR (Homo sapiens, UniProt P42345+P62942); experiment: Inhibition of human full length recombinant mTOR/FKBP12 in presence of [gamma-33P]ATP incubated for 40 mins by radiometric scintillation counting analysis; assay type: protein-complex assay
Chain of FKBP12A/mTOR (P62942 2-108 limits assumed, other chains not shown): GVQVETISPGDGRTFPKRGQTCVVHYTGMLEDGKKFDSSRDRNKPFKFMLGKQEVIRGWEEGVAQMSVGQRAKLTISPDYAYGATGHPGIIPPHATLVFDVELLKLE

IC50 [1]: 2470 nM
SMILES: C[C@@H]1COCCN1c1nc(-c2c[nH]c3ncccc23)nc2c1CN(S(=O)(=O)C1CC1)C2

IC50 [1]: 891 nM
SMILES: O=S(=O)(C1CC1)N1Cc2nc(-c3c[nH]c4ccccc34)nc(N3CCOCC3)c2C1

IC50 [1]: > 10000 nM
SMILES: O=S(=O)(C1CC1)N1Cc2nc(-c3c[nH]c4ccccc34)nc(N3CC4CC3CO4)c2C1 (centres undefined)

IC50 [1]: > 10000 nM
SMILES: O=S(=O)(C1CC1)N1Cc2nc(-c3c[nH]c4ccccc34)nc(N3C[C@H]4COC[C@H]4C3)c2C1

IC50 [1]: 10 nM
SMILES: C[C@@H]1COCCN1c1nc(-c2c[nH]c3ccccc23)nc2c1CN(C(=O)C(C)(C)CCl)C2

IC50 [1]: 20 nM
SMILES: C[C@@H]1COCCN1c1nc(-c2c[nH]c3ccccc23)nc2c1CN(S(=O)(=O)C1CCCCC1)C2

IC50 [1]: 26 nM
SMILES: CCC(C)C(=O)N1Cc2nc(-c3c[nH]c4ccccc34)nc(N3CCOC[C@H]3C)c2C1 (some centres undefined)

IC50 [1]: 11 nM
SMILES: C[C@@H]1COCCN1c1nc(-c2c[nH]c3ccccc23)nc2c1CN(C(=O)[C@H]1CCCO1)C2

IC50 [1]: 601 nM
SMILES: C[C@@H]1COCCN1c1nc(-c2c[nH]c3ccccc23)nc2c1CN(C(=O)C1CCNCC1)C2

IC50 [1]: 53 nM
SMILES: C[C@@H]1COCCN1c1nc(-c2cccc3[nH]ccc23)nc2c1CN(S(=O)(=O)C1CC1)C2

IC50 [1]: 25 nM
SMILES: C[C@@H]1COCCN1c1nc(-c2c[nH]c3ccccc23)nc2c1CN(C(=O)C(C)(C)C)C2

IC50 [1]: 8360 nM
SMILES: C[C@H](CO)Nc1nc(-c2c[nH]c3ccccc23)nc2c1CN(S(=O)(=O)C1CC1)C2

IC50 [1]: 18 nM
SMILES: C[C@@H]1COCCN1c1nc(-c2c[nH]c3ccccc23)nc2c1CN(S(=O)(=O)N(C)C)C2

IC50 [1]: > 10000 nM
SMILES: C[C@@H]1CN(c2nc(-c3c[nH]c4ccccc34)nc3c2CN(S(=O)(=O)C2CC2)C3)C[C@H](C)O1

IC50 [2]: 2110 nM | IC50 [3]: 3480 nM | IC50 [1]: 4 nM | IC50 [4]: 1880 nM | IC50 [5]: 1740 nM | IC50 [8]: 3840 nM | IC50 [9]: 1350 nM
SMILES: C[C@@H]1COCCN1c1nc(-c2c[nH]c3ccccc23)nc2c1CN(S(=O)(=O)C1CC1)C2
IC50 [6]: 1860 nM | IC50 [7]: 2480 nM

IC50 [2]: 2630 nM | IC50 [3]: 3350 nM | IC50 [1]: 6 nM | IC50 [4]: 1290 nM | IC50 [5]: 1820 nM | IC50 [8]: 3960 nM | IC50 [9]: 1190 nM
SMILES: C[C@@H]1COCCN1c1nc(-c2c[nH]c3ccccc23)nc2c1CN(C(=O)C1CC1)C2
IC50 [6]: 1630 nM | IC50 [7]: 1450 nM

IC50 [1]: > 10000 nM
SMILES: C[C@@H]1COCCN1c1nc(-c2cc[nH]n2)nc2c1CN(S(=O)(=O)C1CC1)C2

IC50 [1]: 1390 nM
SMILES: O=S(=O)(C1CC1)N1Cc2nc(-c3c[nH]c4ccccc34)nc(N3C4CCC3COC4)c2C1

IC50 [1]: 2710 nM
SMILES: C[C@@H]1COCCN1c1nc(-c2cnc3[nH]ccc3c2)nc2c1CN(S(=O)(=O)C1CC1)C2

IC50 [1]: 544 nM
SMILES: O=S(=O)(C1CC1)N1Cc2nc(-c3c[nH]c4ccccc34)nc(N3CC4CCC(C3)O4)c2C1

IC50 [1]: 4950 nM
SMILES: C[C@H]1COCCN1c1nc(-c2c[nH]c3ccccc23)nc2c1CN(S(=O)(=O)C1CC1)C2

IC50 [1]: 10000 nM
SMILES: O=S(=O)(C1CC1)N1Cc2nc(-c3c[nH]c4ccccc34)nc(NC3COC3)c2C1

IC50 [2]: 840 nM | IC50 [10]: 136 nM | IC50 [3]: 2110 nM | inhibition [12]: Dde | IC50 [13]: 2720 nM | inhibition [14]: Dde | IC50 [1]: 7 nM | IC50 [4]: 950 nM | IC50 [15]: 9440 nM | IC50 [5]: 1420 nM | IC50 [17]: 2150 nM | IC50 [8]: 2150 nM | IC50 [9]: 670 nM | IC50 [20]: 125 nM
SMILES: CC(C)S(=O)(=O)N1Cc2nc(-c3c[nH]c4ccccc34)nc(N3CCOC[C@H]3C)c2C1
inhibition [11]: Dde | IC50 [6]: 1020 nM | inhibition [16]: Dde | Activity [18]: Dde | Activity [19]: Tde | IC50 [7]: 1340 nM

IC50 [1]: 38 nM
SMILES: C[C@@H]1COCCN1c1nc(-c2c[nH]c3ccccc23)nc2c1CN(C(=O)C(C)(C)C(F)(F)F)C2
